Where “and” joins values, the source holds several entries; their conditions need not be identical. Identical values can stand only once.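 Compound exposure: 48 hours, 5 concentrations, 96-well plates. GI50 is the concentration that inhibits growth by half. TGI marks complete inhibition of growth.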
Experiments:
Experiment in all cases: DTP human tumour cell line panel, 48 h
[1] = test system: A549 NSCLC
[2] = test system: IGROV1 ovarian
[3] = test system: OVCAR-4 ovarian
[4] = test system: OVCAR-3 ovarian
[5] = test system: BT-549 breast
[6] = test system: K-562 leukemia
[7] = test system: SF-539 CNS
[8] = test system: SW-620 colon
[9] = test system: NCI-H23 lung
[10] = test system: HCC-2998 colon

Row | Structure (SMILES) | GI50 [1] | TGI [1] | GI50 [2] | TGI [2] | GI50 [3] | TGI [3] | GI50 [4] | TGI [4] | GI50 [5] | TGI [5] | TGI [6] | GI50 [7] | TGI [7] | GI50 [8] | TGI [8] | GI50 [9] | TGI [9] | GI50 [10] | TGI [10] | GI50 [6]
1 | O=C1c2cc(-c3ccccc3)ccc2-c2c1c1ccc([N+](=O)[O-])cc1c(=O)n2CCCBr | > 50 µM | > 50 µM | > 50 µM | > 50 µM | > 50 µM | > 50 µM | > 50 µM | > 50 µM | > 50 µM | > 50 µM | > 12.2 µM | > 28.7 µM | > 50 µM | > 50 µM | > 50 µM | > 50 µM | > 50 µM | > 50 µM | > 50 µM | –
2 | COc1ccc2c(c1)c1nc3cc(C)c(C)cc3nc1n2CCN(C)C | 0.495 µM | 2.19 µM | 0.464 µM | 1.97 µM | 1.03 µM | 2.43 µM | 1.13 µM | 2.55 µM | 1.7 µM | 3.49 µM | 2.43 µM | 0.907 µM | 2.35 µM | 0.405 µM | 1.73 µM | 1.02 µM | 2.88 µM | 1.07 µM | 2.58 µM | 0.431 µM
3 | CN[C@@H]1C[C@H]2O[C@@](C)([C@@H]1OC)n1c3ccccc3c3c4c(c5c6ccccc6n2c5c31)C(=O)N[C@H]4O | 0.0465 µM | 3 µM | 0.0188 µM | 0.102 µM | 0.125 µM | > 10 µM | 0.101 µM | 1.99 µM | 0.0683 µM | 0.617 µM | > 6.56 µM | 0.0266 µM | 0.115 µM | 0.104 µM | > 5.91 µM | 0.0285 µM | 0.847 µM | 0.0722 µM | 0.974 µM | 0.129 µM
4 | COc1ccc2c3c(c4ccccc4cc13)C(=O)N(CCN(C)CCN)C2=O | 0.0113 µM | 0.243 µM | – | – | 0.299 µM | 1.7 µM | 0.257 µM | 1.19 µM | 0.329 µM | 1.84 µM | 1.32 µM | 0.186 µM | 1.35 µM | 0.0515 µM | 1.32 µM | 0.0902 µM | 1.28 µM | 0.182 µM | 1.65 µM | 0.204 µM
5 | CSc1n(Cc2ccc3ccccc3c2)c(C)c[n+]1Cc1ccc2ccccc2c1 | 1.28 µM | 2.73 µM | 0.49 µM | 1.8 µM | 0.289 µM | 1.04 µM | 0.445 µM | 1.63 µM | 0.569 µM | 1.81 µM | 2.36 µM | 0.797 µM | 2.12 µM | 0.852 µM | 2.26 µM | 0.385 µM | 1.64 µM | 0.535 µM | 1.82 µM | 0.414 µM
6 | COc1ccc2c(c1)CCc1[nH]nc(-c3cc(OC)c(OC)c(OC)c3)c1-2 | < 0.01 µM | 19.5 µM | < 0.01 µM | 23.7 µM | < 0.01 µM | 56.5 µM | < 0.01 µM | 14.7 µM | < 0.01 µM | 10.6 µM | > 100 µM | < 0.01 µM | < 0.01 µM | < 0.01 µM | 14.5 µM | < 0.01 µM | 3.53 µM | < 0.01 µM | 11.4 µM | < 0.01 µM
7 | Cc1cc([N+](=O)[O-])ccc1NS(=O)(=O)c1cc(Cl)ccc1Cl | 2.91 µM | > 51 µM | 4.61 µM | > 100 µM | 2.42 µM | > 30.8 µM | 3.24 µM | > 46.6 µM | 2.48 µM | 14 µM | > 100 µM | 3.45 µM | 20.7 µM | 4.36 µM | > 100 µM | 3 µM | 9.99 µM | 4.28 µM | 18 µM | 3.56 µM
8 | OC(C1CO1)C(O)C1CO1 (stereo not given) | 16.5 µM and 8.67 µM | 150 µM and 235 µM | 129 µM | 149 µM and 327 µM | 134 µM | 150 µM and 299 µM | 101 µM | 98.7 µM and 286 µM | 29.5 µM | 84.7 µM and 299 µM | 150 µM | – | 106 µM and 128 µM | 52.4 µM and 93 µM | 150 µM and 458 µM | 36.4 µM | 90 µM and 369 µM | 60.5 µM | 87.9 µM and 138 µM | 62.5 µM
9 | Fc1cccc(CSc2ncnc3c2ncn3C2CCCS2)c1 (stereo not given) | – | > 100 µM | – | > 100 µM | – | 83.1 µM | – | 35.6 µM | – | 79.5 µM | 84.2 µM | – | 25.8 µM | – | > 100 µM | – | 62.1 µM | – | 42.2 µM | –
10 | COc1cc(F)cc([C@@H](CO)NC(=O)[C@@H](C)N2Cc3ccc(-c4nc(NC5CCOCC5)ncc4Cl)cc3C2=O)c1 | 0.566 µM | > 100 µM | 0.0409 µM | 35.6 µM | 7.91 µM | > 91.6 µM | 16.5 µM | > 68.6 µM | 5.43 µM | 24.3 µM | > 100 µM | 5.33 µM | 33.9 µM | 0.0761 µM | > 100 µM | < 0.0133 µM | 20.2 µM | 0.0125 µM | 57.5 µM | 0.536 µM
11 | CCOC(=O)NC1=C(N2CC2)C(=O)C(NC(=O)OCC)=C(N2CC2)C1=O | 6.46 µM and 1.64 µM and 3.09 µM | 25 µM and 43 µM and 40.2 µM | 8.21 µM and 7.5 µM | 25 µM and 18.1 µM and 30.6 µM | 12.8 µM and 7 µM | 24 µM and 11.8 µM and 17.7 µM | 5.91 µM and 5.8 µM | 17.4 µM and 12.9 µM and 16.1 µM | – | 25 µM | 20.8 µM and 38.3 µM and 17 µM | 1.57 µM | 9.51 µM and 9.15 µM and 27.5 µM | 5.99 µM and 5.69 µM | 24.6 µM and 26.1 µM and 19.2 µM | 2.87 µM and 1.61 µM | 15.6 µM and 14.1 µM and 7.55 µM | 20 µM and 10.3 µM | 25 µM and 23.2 µM and 35 µM | 6.13 µM
12 | Cc1ccc(C(=O)/C(=C\c2ccc([N+](=O)[O-])cc2)S(=O)Cc2ccc(F)cc2)cc1 (stereo not given) | 2.86 µM | 8.8 µM | 1.5 µM | 3.05 µM | 1.73 µM | 3.54 µM | 1.57 µM | 2.96 µM | 1.52 µM | 2.88 µM | – | 1.72 µM | 3.29 µM | 1.56 µM | 3.26 µM | 1.69 µM | 3.36 µM | 1.77 µM | 3.24 µM | –
13 | O=C(Nc1ccc2[nH]c(C(=O)N3CC(CCl)c4c3cc([N+](=O)[O-])c3ccccc43)cc2c1)c1cc2ccccc2o1 (stereo not given) | > 1100 µM | > 1100 µM | > 1100 µM | > 1100 µM | > 1100 µM | > 1100 µM | > 1100 µM | > 1100 µM | > 1100 µM | > 1100 µM | – | – | > 1100 µM | > 1100 µM | > 1100 µM | > 1100 µM | > 1100 µM | 57.7 µM | > 1100 µM | –
